Structures can show the parent of a compound that is named as a salt.
target: T1, Farnesyltransferase (FTase) (Bos taurus, UniProt P29702+P49355); assay: Farnesyltransferase inhibition (scintillation proximity assay, [3H]-FPP / biotin-K-ras peptide); assay type: biochemical, bovine; conditions: compound at 10^−6 M; bovine FTase, 37° C., 30 minutes
T1 construct: precipitation from a beef brain homogenate; from tissue; host or cells: bovine brain
Protocol: Farnesyltransferase (FTase) or geranylgeranyltransferase I (GGTase I) fractions were isolated from bovine brains and purified by a series of methods which separate FTase from GGTase I and GGTase I from GGTase II. The methods involved a partial purification of all three enzymes by precipitation from a beef brain homogenate with 30% to 50% saturated […] followed by chromatography on DEAE Sepharose. […] The catalytic purity of each enzyme was assayed separately with substrate acceptor proteins specific for that enzyme. After quickly freezing in liquid nitrogen, the various prenyl transferases were stored at −80° C.
The quenched reactions stood for 1 hour before analysis in a Packard TopCount scintillation counter. Purified compounds were dissolved in 100% ethanol and diluted 10-fold into the assay.

T1 sequence (P49355 whole entry, one chain of several): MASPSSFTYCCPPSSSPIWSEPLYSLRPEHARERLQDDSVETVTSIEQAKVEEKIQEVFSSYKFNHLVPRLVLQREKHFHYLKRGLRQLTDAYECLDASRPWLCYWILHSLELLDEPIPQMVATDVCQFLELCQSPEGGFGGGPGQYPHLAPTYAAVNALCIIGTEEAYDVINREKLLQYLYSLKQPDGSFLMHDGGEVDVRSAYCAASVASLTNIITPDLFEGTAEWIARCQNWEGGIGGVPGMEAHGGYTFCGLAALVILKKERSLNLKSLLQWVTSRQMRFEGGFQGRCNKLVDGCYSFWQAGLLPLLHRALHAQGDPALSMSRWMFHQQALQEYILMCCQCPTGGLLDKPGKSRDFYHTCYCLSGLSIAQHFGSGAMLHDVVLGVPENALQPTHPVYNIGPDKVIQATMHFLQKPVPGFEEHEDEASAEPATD

Point of comparison: `Cn1cncc1C(c1ccc(C#N)c(-c2cccc3ccccc23)c1)S(=O)(=O)Cc1ccc(C#N)cc1` (stereo not shown) [Example 71, 4-(((4-cyanobenzyl)sulfonyl)(1-methyl-1H-imidazol-5-yl)methyl)-2-(1-naphthyl)benzonitrile hydrochloride], inhibition at 1 µM 100%. Against it:
- Cn1cncc1C(OCc1ccc(Cl)cc1)c1ccc(C#N)c(-c2cccc3ccccc23)c1 (stereo not shown) [Example 66, 4-(((4-chlorobenzyl)oxy)(1-methyl-1H-imidazol-5-yl)methyl)-2-(1-naphthyl)benzonitrile hydrochloride] — the same, 100%
- Cn1cncc1C(OCc1ccc(OC(F)(F)F)cc1)c1ccc(C#N)c(-c2cccc3ccccc23)c1 (stereo not shown) [Example 67, 4-((1-methyl-1H-imidazol-5-yl)((4-(trifluoromethoxy)benzyl)oxy)methyl)-2-(1-naphthyl)benzonitrile hydrochloride] — the same, 100%
- Cn1cncc1C(OCc1cccc(C(F)(F)F)c1)c1ccc(C#N)c(-c2cccc3ccccc23)c1 (stereo not shown) [Example 68, 4-((1-methyl-1H-imidazol-5-yl)((3-(trifluoromethyl)benzyl)oxy)methyl)-2-(1-naphthyl)benzonitrile hydrochloride] — the same, 100%
- Cn1cncc1C(OCc1ccc(C(=O)O)cc1)c1ccc(C#N)c(-c2cccc3ccccc23)c1 (stereo not shown) [Example 69, lithium 4-(((4-cyano-3-(1-naphthyl)phenyl)(1-methyl-1H-imidazol-5-yl)methoxy)methyl)benzoate] — the same, 100%
- CN(C)C(=O)c1ccc(COC(c2ccc(C#N)c(-c3cccc4ccccc34)c2)c2cncn2C)cc1 (stereo not shown) [Example 70, 4-(((4-cyano-3-(1-naphthyl)phenyl)(1-methyl-1H-imidazol-5-yl)methoxy)methyl)-N,N-dimethylbenzamide hydrochloride] — the same, 100%
- Cn1cncc1C(OCc1ccc(Cl)cc1Cl)c1ccc(C#N)c(-c2cccc3ccccc23)c1 (stereo not shown) [Example 72, 4-(((2,4-dichlorobenzyl)oxy)(1-methyl-1H-imidazol-5-yl)methyl)-2-(1-naphthyl)benzonitrile hydrochloride] — the same, 100%
- Cn1cncc1C(OCc1ccc(S(C)(=O)=O)cc1)c1ccc(C#N)c(-c2cccc3ccccc23)c1 (stereo not shown) [Example 73, 4-((1-methyl-1H-imidazol-5-yl)((4-(methylsulfonyl)benzyl)oxy)methyl)-2-(1-naphthyl)benzonitrile hydrochloride] — the same, 100%
- Cn1cncc1C(OCc1ccc(C#N)c(Br)c1)c1ccc(C#N)c(-c2cccc3ccccc23)c1 (stereo not shown) [Example 75, 4-(((3-bromo-4-cyanobenzyl)oxy)(1-methyl-1H-imidazol-5-yl)methyl)-2-(1-naphthyl)benzonitrile hydrochloride] — the same, 100%
- Cn1cncc1C(OCc1ccc(C#N)c(F)c1)c1ccc(C#N)c(-c2cccc3ccccc23)c1 (stereo not shown) [Example 77, 4-(((4-cyano-3-fluorobenzyl)oxy)(1-methyl-1H-imidazol-5-yl)methyl)-2-(1-naphthyl)benzonitrile hydrochloride] — the same, 100%
- Cc1ccccc1-c1cc(C(OCc2ccccc2)c2ccsc2)ccc1C#N (stereo not shown) [Example 80, 5-((benzyloxy)(3-thienyl)methyl)-2′-methyl(1,1′-biphenyl)-2-carbonitrile] — lower, 12%
- Cc1ccccc1-c1cc(C(OCc2ccccc2)c2cnnn2C)ccc1C#N (stereo not shown) [Example 81, 5-((benzyloxy)(1-methyl-1H-1,2,3-triazol-5-yl)methyl)-2′-methyl(1,1′-biphenyl)-2-carbonitrile hydrochloride] — lower, 14%
- Cc1ccccc1-c1cc(CN(CCC2CCCCC2)Cc2cncn2C)ccc1C#N [Example 82, 5-(((2-cyclohexylethyl)((1-methyl-1H-imidazol-5-yl)methyl)amino)methyl)-2′-methyl(1,1′-biphenyl)-2-carbonitrile hydrochloride] — lower, 87%
- N#Cc1ccc(CN(CCC2CCCCC2)C(=O)Cn2ccnc2)cc1-c1cccc2ccccc12 [Example 85, N-(4-cyano-3-(1-naphthyl)benzyl)-N-(2-cyclohexylethyl)-2-(1H-imidazol-1-yl)acetamide] — lower, 46%
- Cc1ccccc1-c1cc(C(O)c2cncn2C)ccc1C#N (stereo not shown) [Example 86, 5-(hydroxy(1-methyl-1H-imidazol-5-yl)methyl)-2′-methyl(1,1′-biphenyl)-2-carbonitrile] — lower, 86%
- Cn1cncc1C(OCc1ccccc1)c1ccc(C#N)c(-c2ccccc2)c1 (stereo not shown) [Example 87, 5-((benzyloxy)(1-methyl-1H-imidazol-5-yl)methyl)(1,1′-biphenyl)-2-carbonitrile hydrochloride] — lower, 89%
- Cn1cncc1C(OCc1ccccc1)c1ccc(C#N)c(-c2ccsc2)c1 (stereo not shown) [Example 90, 4-((benzyloxy)(1-methyl-1H-imidazol-5-yl)methyl)-2-(3-thienyl)benzonitrile hydrochloride] — lower, 90%
- Cc1cccc(-c2cc(C(OCc3ccccc3)c3cncn3C)ccc2C#N)c1 (stereo not shown) [Example 91, 5-((benzyloxy)(1-methyl-1H-imidazol-5-yl)methyl)-3′-methyl(1,1′-biphenyl)-2-carbonitrile hydrochloride] — lower, 94%
- Cn1cncc1C(OCc1ccccc1)c1ccc(C#N)c(-c2ccc3ccccc3c2)c1 (stereo not shown) [Example 92, 4-((benzyloxy)(1-methyl-1H-imidazol-5-yl)methyl)-2-(2-naphthyl)benzonitrile hydrochloride] — lower, 53%
- Cc1ccc(-c2cc(C(OCc3ccccc3)c3cncn3C)ccc2C#N)cc1 (stereo not shown) [Example 93, 5-((benzyloxy)(1-methyl-1H-imidazol-5-yl)methyl)-4′-methyl(1,1′-biphenyl)-2-carbonitrile hydrochloride] — lower, 58%
- Cn1cncc1C(OCc1ccccc1)c1ccc(C#N)c(C2CCCCC2)c1 (stereo not shown) [Example 100, 4-((benzyloxy)(1-methyl-1H-imidazol-5-yl)methyl)-2-cyclohexylbenzonitrile hydrochloride] — lower, 83%
- CCOCn1cncc1C(OCc1ccccc1)c1ccc(C#N)c(-c2cccc3ccccc23)c1 (stereo not shown) [Example 105, 4-((benzyloxy)(1-(ethoxymethyl)-1H-imidazol-5-yl)methyl)-2-(1-naphthyl)benzonitrile hydrochloride] — lower, 82%
- Cc1ccccc1-c1cc(C(O)(C#Cc2ccccc2)c2cncn2C)ccc1C#N (stereo not shown) [Example 109, 5-(1-hydroxy-1-(1-methyl-1H-imidazol-5-yl)-3-phenyl-2-propynyl)-2′-methyl(1,1′-biphenyl)-2-carbonitrile] — the same, 100%
- Cc1ccccc1-c1cc(C(O)(CCc2ccccc2)c2cncn2C)ccc1C#N (stereo not shown) [Example 110, 5-(1-hydroxy-1-(1-methyl-1H-imidazol-5-yl)-3-phenylpropyl)-2′-methyl(1,1′-biphenyl)-2-carbonitrile] — lower, 96%
- Cn1cncc1C(O)(C#Cc1ccccc1)c1ccc(C#N)c(-c2cccc3ccccc23)c1 (stereo not shown) [Example 111, 4-(1-hydroxy-1-(1-methyl-1H-imidazol-5-yl)-3-phenyl-2-propynyl)-2-(1-naphthyl)benzonitrile] — the same, 100%
- Cn1cncc1C(OCc1ccc(C#N)cc1)c1ccc(F)c(-c2cccc3ccccc23)c1 (stereo not shown) [Example 112, 4-(((4-fluoro-3-(1-naphthyl)phenyl)(1-methyl-1H-imidazol-5-yl)methoxy)methyl)benzonitrile para-toluenesulfonic acid salt] — the same, 100%
- Cc1ccccc1-c1cc(C(OCc2cccc(C#N)c2)c2cncn2C)ccc1C#N (stereo not shown) [Example 113, 5-(((3-cyanobenzyl)oxy)(1-methyl-1H-imidazol-5-yl)methyl)-2′-methyl(1,1′-biphenyl)-2-carbonitrile hydrochloride] — lower, 90%
- Cn1cncc1CN(Cc1ccc(C#N)cc1)Cc1ccc(C#N)c(-c2cccc3cccnc23)c1 [Example 114, 4-(((4-cyanobenzyl)((1-methyl-1H-imidazol-5-yl)methyl)amino)methyl)-2-(8-quinolinyl)benzonitrile] — lower, 99%
- Cc1ccccc1-c1cc(C(OCc2ccc(C(C)(C)C)cc2)c2cncn2C)ccc1C#N (stereo not shown) [Example 115, 5-(((4-(tert-butyl)benzyl)oxy)(1-methyl-1H-imidazol-5-yl)methyl)-2′-methyl(1,1′-biphenyl)-2-carbonitrile hydrochloride] — lower, 89%
- Cc1ccccc1-c1cc(C(OCc2ccc(C#N)cc2)c2cncn2C)ccc1C#N (stereo not shown) [Example 116, 5-(((4-cyanobenzyl)oxy)(1-methyl-1H-imidazol-5-yl)methyl)-2′-methyl(1,1′-biphenyl)-2-carbonitrile hydrochloride] — lower, 99%
- Cc1ccccc1-c1cc(C(OCc2cccc(I)c2)c2cncn2C)ccc1C#N (stereo not shown) [Example 117, 5-(((3-iodobenzyl)oxy)(1-methyl-1H-imidazol-5-yl)methyl)-2′-methyl(1,1′-biphenyl)-2-carbonitrile hydrochloride] — lower, 90%
- Cc1ccccc1-c1cc(C(OCc2ccc(F)cc2)c2cncn2C)ccc1C#N (stereo not shown) [Example 118, 5-(((4-fluorobenzyl)oxy)(1-methyl-1H-imidazol-5-yl)methyl)-2′-methyl(1,1′-biphenyl)-2-carbonitrile hydrochloride] — lower, 90%
- Cc1ccccc1-c1cc(C(OCc2ccc(Br)cc2)c2cncn2C)ccc1C#N (stereo not shown) [Example 119, 5-(((4-bromobenzyl)oxy)(1-methyl-1H-imidazol-5-yl)methyl)-2′-methyl(1,1′-biphenyl)-2-carbonitrile hydrochloride] — lower, 93%

For `Cl.Cl.Cn1cncc1C(OCc1cc(Cl)nc(Cl)c1)c1ccc(C#N)c(-c2cccc3ccccc23)c1` (stereo not shown) [Example 74, 4-(((2,6-dichloro-4-pyridinyl)methoxy)(1-methyl-1H-imidazol-5-yl)methy)-2-(1-naphthyl)benzonitrile dihydrochloride], the “% Inhibition at 10^−6M” value was 100%.

Reference: US20020019527A1 (priority 2000, published 2002)
